Measured values published in ChEMBL document CHEMBL4041476, “Design, selective alkylation and X-ray crystal structure determination of dihydro-indolyl-1,2,4-triazole-3-thione and its 3-benzylsulfanyl analogue as potent anticancer agents” (Eur J Med Chem, 2017).
Values after ≈ are worked out from the molar mass of the structure shown.

Key:
[1] = tested on: HepG2; test: Antiproliferative activity against human HepG2 cells after 48 hrs by SRB assay; type: functional, cell-based; details: HepG2, 48 h
[2] = tested on: MCF7; test: Antiproliferative activity against human MCF7 cells after 48 hrs by SRB assay; type: functional, cell-based; details: MCF7, 48 h

| IC50 [1] [µg/mL] | IC50 [2] [µg/mL] | Compound |
| --- | --- | --- |
| 12.1 (≈ 34.5 µM) | 14.6 (≈ 41.7 µM) | OCCn1nc(-c2cc3ccccc3[nH]2)nc1SCc1ccccc1 |
| 15.9 (≈ 45.9 µM) | 15.5 (≈ 44.7 µM) | C=CCn1nc(-c2cc3ccccc3[nH]2)nc1SCc1ccccc1 |
| 17.9 (≈ 45.1 µM) | 10.8 (≈ 27.2 µM) | c1ccc(CSc2nc(-c3cc4ccccc4[nH]3)nn2Cc2ccccc2)cc1 |
| 16.3 (≈ 41.1 µM) | 14.8 (≈ 37.3 µM) | c1ccc(CSc2nc(-c3cc4ccccc4[nH]3)n(Cc3ccccc3)n2)cc1 |

The remaining lines, values behind:

| Compound | IC50 [1] [µg/mL] | IC50 [2] [µg/mL] |
| --- | --- | --- |
| S=c1nc(-c2cc3ccccc3[nH]2)[nH][nH]1 | 15.9 (≈ 73.5 µM) | 13.8 (≈ 63.8 µM) |
| CC(=O)N[C@@H]1[C@@H](OC(C)=O)[C@H](OC(C)=O)[C@@H](COC(C)=O)O[C@H]1n1nc(SCc2ccccc2)nc1-c1cc2ccccc2[nH]1 | 16.6 (≈ 26.1 µM) | 15.9 (≈ 25 µM) |
| OCCCn1nc(SCc2ccccc2)nc1-c1cc2ccccc2[nH]1 | 11.5 (≈ 31.6 µM) | 16.2 (≈ 44.4 µM) |
| CC(=O)N[C@@H]1[C@@H](OC(C)=O)[C@H](OC(C)=O)[C@@H](COC(C)=O)O[C@H]1n1nc(-c2cc3ccccc3[nH]2)nc1SCc1ccccc1 | > 100 | > 100 |
| c1ccc(CSc2nc(-c3cc4ccccc4[nH]3)n[nH]2)cc1 | 3.58 (≈ 11.7 µM) | 4.53 (≈ 14.8 µM) |
| CC(=O)OC[C@H]1O[C@@H](n2nc(SCc3ccccc3)nc2-c2cc3ccccc3[nH]2)[C@H](OC(C)=O)[C@@H](OC(C)=O)[C@@H]1OC(C)=O | 16.1 (≈ 25.3 µM) | 16 (≈ 25.1 µM) |
| COc1cccc2c1C(=O)c1c(O)c3c(c(O)c1C2=O)C[C@@](O)(C(=O)CO)C[C@@H]3O[C@H]1C[C@H](N)[C@H](O)[C@H](C)O1 [DOXORUBICIN] | 4 (≈ 7.36 µM) | 4 (≈ 7.36 µM) |
